{
  "source": "patent US6846496B1",
  "about": "“Treatment of osteoporosis” (Orion Corporation, priority 1999, dated 2005)",
  "experiment": "Comparative clinical study: bone mineral density by dual-energy X-ray absorptiometry at vertebrae (L2-L4) and femoral neck",
  "format": "in vivo, postmenopausal women",
  "settings": "48 months; for increase in bone mineral density in the vertebrae (mean percentage change) / increase in bone mineral density in the femoral neck: all subjects; for increase in bone mineral density in the femoral neck (percentage change) / increase in bone mineral density in the vertebrae (mean change from baseline): osteopenic/osteoporotic subjects; for mean change from baseline in BMD in vertebrae: subjects with normal BMD at baseline",
  "from_the_text": "The subjects used in the study were 419 postmenopausal women, aged 45 to 65 years. Eligible women had to be at least 3 years postmenopausal with normal gynecological findings, an intact uterus and a body mass index of 30 or less. Major medical exclusion criteria included endometrial hyperplasia and pathological mammography findings, prior hormone-dependent malignancies, severe thyroid diseases, and other criteria typical for HRT studies. Excessive smokers and alcohol abusers were excluded. Otherwise the women were not required to change their daily diet or other lifestyle habits for the study period.\nSubjects were randomly assigned to six treatment groups to receive one tablet daily containing one of the following dose combinations: 1 mg or 2 mg of estradiolvalerate (E2V) combined to 2.5 mg or 5 mg of medroxyprogestrone acetate (MPA) (Indivina®, Orion Corporation, Espoo, Finland).\nGroups changing from 1 mg E2V to 2 mg E2V irrespective of the MPA (Group I and II) were pooled together. Groups receiving 1 mg of E2V throughout the study irrespective of the MPA dose (Group V and VI) were pooled together. Also groups receiving 2 mg of E2V throughout the study irrespective of the MPA dose (Group III and IV) were pooled together. Pooling was considered justified since MPA is not expected to affect the response of estrogen on bone mineral density (BMD).\nThe bone mineral densities at the vertebrae and the hip were measured using dual-energy X-ray absorptiometry (DPX) at baseline, 6-, 12-, 24, 36- and 48-month follow-up visits, and at premature discontinuation. The BMD from the hip was measured by three separate measurements at the femur neck, Ward's triangle, major trochanter and BMD from the vertebrae was measured at L2-L4. In addition, the area and bone mineral content (BMC) of vertebrae L2-L4 were determined.\nResults were further analysed to compare the effect varying dosages on BMD in groups that had either normal, osteopenic or osteoporotic BMD value at baseline. Subjects were classified as osteopenic if the BMD was 0.90 to 1.08 g/cm^2 in vertebrae (L2-L4) and 0.68 to 0.86 g/cm^2 in femoral neck (corresponds to T score between −1 and −2.5 in Finnish population). BMD was regarded as normal if the values were above 1.08 g/cm^2 in vertebrae and above 0.86 g/cm^2 in femoral neck. Values below 0.90 g/cm^2 in vertebrae and below 0.68 /cm^2 in femoral neck were considered as osteoporotic.",
  "key": {"[1]": {"settings": "daily 1 mg E2V first 6 months then 2 mg E2V"}},
  "note": "Values joined by “and” are separate entries in the source; they are usually repeats but may differ in a detail not shown here. Equal entries are not always repeated.",
  "data": [
    {"smiles": "CCCCC(=O)O[C@H]1CC[C@H]2[C@@H]3CCc4cc(O)ccc4[C@H]3CC[C@]12C", "note": "[E2V, estradiol valerate]", "values": [
      {"measurement": "increase in bone mineral density in the vertebrae (mean percentage change)", "setting": "daily 1 mg E2V first 6 months then 2 mg E2V (Groups I+II pooled, with MPA)", "result": 8.9, "unit": "%"},
      {"measurement": "increase in bone mineral density in the femoral neck", "setting": "[1]", "result": "4.2% and 4.3%"},
      {"measurement": "increase in bone mineral density in the vertebrae (mean percentage change)", "setting": "daily 1 mg E2V whole term (Groups V+VI pooled, with MPA)", "result": 6.2, "unit": "%"},
      {"measurement": "increase in bone mineral density in the femoral neck", "setting": "daily 1 mg E2V whole term", "result": 2.9, "unit": "%"},
      {"measurement": "increase in bone mineral density in the vertebrae (mean percentage change)", "setting": "daily 2 mg E2V whole term (Groups III+IV pooled, with MPA)", "result": 7.4, "unit": "%"},
      {"measurement": "increase in bone mineral density in the femoral neck", "setting": "daily 2 mg E2V whole term", "result": 2.9, "unit": "%"},
      {"measurement": "increase in bone mineral density in the femoral neck (percentage change)", "setting": "[1]", "result": 6.4, "unit": "%"},
      {"measurement": "increase in bone mineral density in the vertebrae (mean change from baseline)", "setting": "[1]", "result": 9.4, "unit": "%"},
      {"measurement": "increase in bone mineral density in the femoral neck (percentage change)", "setting": "daily 1 mg E2V whole term", "result": 3.8, "unit": "%"},
      {"measurement": "increase in bone mineral density in the vertebrae (mean change from baseline)", "setting": "daily 1 mg E2V whole term", "result": 7.7, "unit": "%"},
      {"measurement": "increase in bone mineral density in the femoral neck (percentage change)", "setting": "daily 2 mg E2V whole term", "result": 3.5, "unit": "%"},
      {"measurement": "increase in bone mineral density in the vertebrae (mean change from baseline)", "setting": "daily 2 mg E2V whole term", "result": 7.3, "unit": "%"},
      {"measurement": "mean change from baseline in BMD in vertebrae", "setting": "[1]", "result": 8.3, "unit": "%"},
      {"measurement": "mean change from baseline in BMD in vertebrae", "setting": "daily 1 mg E2V whole term", "result": 4.7, "unit": "%"},
      {"measurement": "mean change from baseline in BMD in vertebrae", "setting": "daily 2 mg E2V whole term", "result": 7.5, "unit": "%"}
    ]}
  ]
}
